Patent publication US20230027361A1, “METTL3 MODULATORS” (priority 2019, published 2023)
pIC50: −log10 of the molar value. Like-named read-outs stand apart in the source and are kept apart here.

How the values were obtained:
METTL3/METTL14 = METTL3/METTL14 (Homo sapiens, UniProt Q86U44); test: METTL3-14 Standard Enzyme Assay (METTL3 biochemical assay)
Description: Assays were performed in a 25 μl-volume in 384-well V-bottom polypropylene microplates (Greiner Bio-One, cat. No. 781280) at ambient temperature. Optimized 1× assay buffer was 20 mM HEPES pH 7.5, 50 mM KCl, 250 μM MgCl2, 1 mM DTT, 0.01% Tween, 0.01% BSG, 0.004 U/μl RNAseOUT (cat. No. 10777019, ThermoFisher Scientific, Waltham, Mass.). For compound screening METTL3/METTL14 (final concentration, f.c.=2.5 nM) was added using a Multidrop Combi (ThermoFisher Scientific, Waltham, Mass.) and preincubated for 5 min. Reactions were started by adding 3′ biotinylated RNA ([…]-biotin) (f.c.=100 nM) and 3H-SAM (f.c.=100 nM) substrates. Reactions proceeded for 30 minutes and were quenched with excess non-radioactive SAM (f.c.=15 μM). The reactions were then transferred to streptavidin-coated flashplates and incubated for 2 hours at 25° C. Following two washing cycles with 0.1% Tween-20, the plates were sealed and read on a TopCount (PerkinElmer, Waltham, Mass.) plate-based scintillation counter. For determination of kinetic parameters, reaction times were optimized so that measurements were taken during the initial velocity phase of the reaction.

METTL1/WDR4 = METTL1/WDR4 (Homo sapiens, UniProt Q9UBP6); test: METTL1 Assay (METTL1 biochemical assay)
Description: Assays were performed in a 25 μl-volume in 384-well V-bottom polypropylene microplates (Greiner Bio-One, cat. No. 781280) at ambient temperature. Optimized 1× assay buffer was 20 mM HEPES pH 7.5, 50 mM KCl, 250 μM MgCl2, 1 mM DTT, 0.01% Tween, 0.01% BSG, 0.004 U/μl RNAseOUT (cat. No. 10777019, ThermoFisher Scientific, Waltham, Mass.). For compound screening METTL1/WDR4 (final concentration, f.c.=6.25 nM) was added using a Multidrop Combi (ThermoFisher Scientific, Waltham, Mass.) and preincubated for 5 min. Reactions were started by adding 3′ biotinylated RNA ([…]-biotin) (f.c.=25 nM) and 3H-SAM (f.c.=60 nM) substrates. Reactions proceeded for 20 minutes and were quenched with excess non-radioactive SAM (f.c.=15 μM). The reactions were then transferred to streptavidin-coated flashplates and incubated for 2 hours at 25° C. Following two washing cycles with 0.1% Tween-20, the plates were sealed and read on a TopCount (PerkinElmer, Waltham, Mass.) plate-based scintillation counter. For determination of kinetic parameters, reaction times were optimized so that measurements were taken during the initial velocity phase of the reaction.

PRMT5-MEP50 = PRMT5-MEP50 (Homo sapiens, UniProt O14744); test: PRMT5 Assay (PRMT5 biochemical assay)
Description: Assays were performed in a 25 μl-volume in 384-well V-bottom polypropylene microplates (Greiner Bio-One, cat. No. 781280) at ambient temperature. Optimized 1× assay buffer was 20 mM Tris-HCl pH 8.0, 1 mM DTT, […]. For compound screening PRMT5-MEP50 (final concentration, f.c.=2.5 nM) was added using a Multidrop Combi (ThermoFisher Scientific, Waltham, Mass.) and preincubated for 5 min. Reactions were started by adding 3′ biotinylated histone H4 peptide acetylated on serine 1 (Ac-[…]-Biotin) (f.c.=100 nM) and 3H-SAM (f.c.=250 nM) substrates. Reactions proceeded for 60 minutes and were quenched with excess non-radioactive SAM (f.c.=15 μM). The reactions were then transferred to streptavidin-coated flashplates and incubated for 2 hours at 25° C. Following two washing cycles with 0.1% Tween-20, the plates were sealed and read on a TopCount (PerkinElmer, Waltham, Mass.) plate-based scintillation counter. For determination of kinetic parameters, reaction times were optimized so that measurements were taken during the initial velocity phase of the reaction.

[1] = METTL3 biochemical assay; read-out: METTL3 IC50
[2] = read-out: METTL1 IC50; METTL1 biochemical assay
[3] = PRMT5 biochemical assay; read-out: PRMT5 IC50
[4] = METTL1 biochemical assay; read-out: METTL1 IC50

Sequence of PRMT5-MEP50 (O14744 whole entry): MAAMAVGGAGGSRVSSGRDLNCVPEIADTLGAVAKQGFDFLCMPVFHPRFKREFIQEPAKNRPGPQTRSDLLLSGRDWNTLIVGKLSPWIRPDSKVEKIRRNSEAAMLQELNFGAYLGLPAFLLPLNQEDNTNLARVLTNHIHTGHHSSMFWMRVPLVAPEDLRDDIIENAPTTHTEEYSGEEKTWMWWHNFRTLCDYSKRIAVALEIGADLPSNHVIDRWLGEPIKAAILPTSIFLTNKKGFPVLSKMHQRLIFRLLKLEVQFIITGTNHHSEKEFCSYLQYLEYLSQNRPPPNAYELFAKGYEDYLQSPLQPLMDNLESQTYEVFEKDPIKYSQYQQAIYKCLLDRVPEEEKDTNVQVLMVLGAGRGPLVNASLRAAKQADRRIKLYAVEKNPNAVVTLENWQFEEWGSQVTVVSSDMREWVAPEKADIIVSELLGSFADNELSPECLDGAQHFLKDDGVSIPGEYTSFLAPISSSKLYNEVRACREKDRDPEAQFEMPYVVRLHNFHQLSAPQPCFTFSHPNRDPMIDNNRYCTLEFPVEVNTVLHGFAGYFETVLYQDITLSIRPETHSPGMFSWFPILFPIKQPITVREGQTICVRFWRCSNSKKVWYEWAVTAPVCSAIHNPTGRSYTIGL
Sequence of PRMT5-MEP50 (Q9BQA1 whole entry partner): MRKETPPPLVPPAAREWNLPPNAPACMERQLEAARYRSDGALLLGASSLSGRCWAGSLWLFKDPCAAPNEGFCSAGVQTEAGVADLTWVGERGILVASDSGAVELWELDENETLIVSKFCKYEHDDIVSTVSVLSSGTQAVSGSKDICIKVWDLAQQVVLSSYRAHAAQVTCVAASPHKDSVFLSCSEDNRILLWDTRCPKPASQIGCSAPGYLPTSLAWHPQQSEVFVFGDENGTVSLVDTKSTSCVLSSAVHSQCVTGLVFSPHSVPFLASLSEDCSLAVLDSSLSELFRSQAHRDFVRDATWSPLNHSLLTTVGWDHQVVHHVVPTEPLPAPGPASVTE
Sequence of METTL3/METTL14 (Q86U44 whole entry, species assumed): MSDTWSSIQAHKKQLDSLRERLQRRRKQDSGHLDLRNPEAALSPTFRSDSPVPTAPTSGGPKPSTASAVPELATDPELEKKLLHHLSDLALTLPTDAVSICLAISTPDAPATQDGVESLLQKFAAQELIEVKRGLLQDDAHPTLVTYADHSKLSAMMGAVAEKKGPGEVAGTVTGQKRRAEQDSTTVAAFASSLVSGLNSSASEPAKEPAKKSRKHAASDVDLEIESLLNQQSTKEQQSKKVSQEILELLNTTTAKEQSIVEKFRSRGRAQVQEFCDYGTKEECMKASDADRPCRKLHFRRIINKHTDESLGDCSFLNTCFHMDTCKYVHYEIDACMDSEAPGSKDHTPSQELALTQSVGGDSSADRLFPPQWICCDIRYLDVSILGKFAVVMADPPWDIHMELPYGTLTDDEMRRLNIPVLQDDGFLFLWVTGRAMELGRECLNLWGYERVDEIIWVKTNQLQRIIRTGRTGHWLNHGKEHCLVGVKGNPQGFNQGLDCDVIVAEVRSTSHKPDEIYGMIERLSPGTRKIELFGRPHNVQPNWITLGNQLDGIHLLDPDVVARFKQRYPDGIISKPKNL
Sequence of METTL3/METTL14 (Q9HCE5 whole entry partner, species assumed): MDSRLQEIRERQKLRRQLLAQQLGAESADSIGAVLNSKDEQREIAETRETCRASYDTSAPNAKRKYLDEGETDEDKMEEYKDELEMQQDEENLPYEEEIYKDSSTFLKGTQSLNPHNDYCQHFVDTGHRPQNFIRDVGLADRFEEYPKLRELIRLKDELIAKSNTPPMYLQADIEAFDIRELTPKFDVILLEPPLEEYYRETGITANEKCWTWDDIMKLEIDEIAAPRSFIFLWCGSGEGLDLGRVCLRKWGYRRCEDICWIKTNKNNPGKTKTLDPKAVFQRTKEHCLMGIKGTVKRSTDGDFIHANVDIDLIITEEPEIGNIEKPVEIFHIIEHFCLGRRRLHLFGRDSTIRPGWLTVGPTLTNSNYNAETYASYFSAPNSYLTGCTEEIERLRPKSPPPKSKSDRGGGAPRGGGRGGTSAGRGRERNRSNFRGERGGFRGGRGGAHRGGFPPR
Sequence of METTL1/WDR4 (Q9UBP6 whole entry, species assumed): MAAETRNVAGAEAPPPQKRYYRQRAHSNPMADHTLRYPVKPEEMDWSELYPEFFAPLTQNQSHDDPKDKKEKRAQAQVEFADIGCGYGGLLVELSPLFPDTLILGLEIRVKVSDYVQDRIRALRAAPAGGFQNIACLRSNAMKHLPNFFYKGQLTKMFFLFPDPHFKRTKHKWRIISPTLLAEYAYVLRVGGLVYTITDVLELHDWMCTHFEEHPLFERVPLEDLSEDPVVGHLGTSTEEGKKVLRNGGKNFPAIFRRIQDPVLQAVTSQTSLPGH
Sequence of METTL1/WDR4 (P57081 whole entry partner, species assumed): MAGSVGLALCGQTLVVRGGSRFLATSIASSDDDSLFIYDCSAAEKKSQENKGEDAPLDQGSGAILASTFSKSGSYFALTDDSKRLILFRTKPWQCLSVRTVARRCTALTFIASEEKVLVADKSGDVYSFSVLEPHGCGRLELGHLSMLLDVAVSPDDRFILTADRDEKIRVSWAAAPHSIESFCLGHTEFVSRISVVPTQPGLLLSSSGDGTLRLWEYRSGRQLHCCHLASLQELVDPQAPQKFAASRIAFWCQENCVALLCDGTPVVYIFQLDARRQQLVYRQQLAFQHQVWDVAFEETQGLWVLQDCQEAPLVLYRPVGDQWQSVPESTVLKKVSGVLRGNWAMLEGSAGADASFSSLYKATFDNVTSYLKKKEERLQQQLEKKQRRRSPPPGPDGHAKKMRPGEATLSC

SMILES	pIC50 (METTL3/METTL14; [1])	pIC50 (METTL1/WDR4; [2])	pIC50 (PRMT5-MEP50; [3])	pIC50 (METTL3/METTL14; read-out: METTL3 IC50; METTL3 biochemical assay)	pIC50 (METTL1/WDR4; [4])	pIC50 (PRMT5-MEP50; read-out: PRMT5 IC50; PRMT5 biochemical assay)
CNc1ccc2ccc(OC[C@H]3O[C@@H](n4cc(C5CCC(F)(F)CC5)c5c(N)ncnc54)[C@H](O)[C@@H]3O)cc2n1 [I-4]	> 8.00	< 6.00	7.00 to 8.00	–	–	–
Cc1cn([C@@H]2O[C@H](COc3ccc4ccc(N)nc4c3)[C@@H](O)[C@H]2O)c2ncnc(N)c12 [I-15]	< 6.00	< 6.00	6.00 to 7.00	–	–	–
Cc1cn([C@@H]2O[C@H](COc3ccc4ccc(NCC5CC5)nc4c3)[C@@H](O)[C@H]2O)c2ncnc(N)c12 [I-20]	< 6.00	< 6.00	6.00 to 7.00	–	–	–
CNc1ccc2ccc(OC[C@H]3O[C@@H](n4cc(C)c5c(N)ncnc54)[C@H](O)[C@@H]3O)cc2n1 [I-22]	< 6.00	< 6.00	6.00 to 7.00	–	–	–
CNc1ccc2ccc(OC[C@H]3O[C@@H](n4cc(Br)c5c(N)ncnc54)C[C@@H]3O)cc2n1 [I-47]	> 8.00	< 6.00	6.00 to 7.00	–	–	–
Nc1ccc2ccc(CC[C@H]3C[C@@H](n4cc([C@@H]5CCOC5)c5c(N)ncnc54)[C@H](O)[C@@H]3O)cc2n1 [I-49]	6.00 to 7.00	< 6.00	> 8.00	–	–	–
Nc1ccc2ccc(CC[C@H]3C[C@@H](n4cc([C@H]5CCOC5)c5c(N)ncnc54)[C@H](O)[C@@H]3O)cc2n1 [I-53]	6.00 to 7.00	< 6.00	> 8.00	–	–	–
Cc1cc2c(N)ncnc2n1[C@@H]1C[C@H](COc2ccc3ccc(N)nc3c2)[C@@H](O)[C@H]1O [I-56]	< 6.00	< 6.00	> 8.00	–	–	–
Cc1cc2c(N)ncnc2n1[C@@H]1C[C@H](CCc2ccc3nc(N)ccc3c2)[C@@H](O)[C@H]1O [I-57]	< 6.00	< 6.00	7.00 to 8.00	–	–	–
CNc1ccc2ccc(CC[C@H]3C[C@@H](n4cc(C5CCOCC5)c5c(N)ncnc54)[C@H](O)[C@@H]3O)cc2n1 [I-58]	7.00 to 8.00	< 6.00	> 8.00	–	–	–
Cc1cc2c(NCCc3ccccc3)ncnc2n1[C@@H]1C[C@H](CCc2ccc3ccc(N)nc3c2)[C@@H](O)[C@H]1O [I-61]	< 6.00	< 6.00	> 8.00	–	–	–
CCCc1cn([C@@H]2C[C@H](CCc3ccc4ccc(N)nc4c3)[C@@H](O)[C@H]2O)c2ncnc(N)c12 [I-62]	6.00 to 7.00	< 6.00	> 8.00	–	–	–
Cn1cc(-c2cn([C@@H]3C[C@H](CCc4ccc5ccc(N)nc5c4)[C@@H](O)[C@H]3O)c3ncnc(N)c23)cn1 [I-63]	–	–	–	6.00 to 7.00	< 6.00	> 8.00
CNc1ccc2cc(CC[C@H]3C[C@@H](n4cc(C)c5c(N)ncnc54)[C@H](O)[C@@H]3O)ccc2n1 [I-64]	6.00 to 7.00	< 6.00	7.00 to 8.00	–	–	–
Cc1cc2c(N)ncnc2n1[C@@H]1C[C@H](CCc2ccc3ccc(N)nc3c2)[C@@H](O)[C@H]1O [I-65]	< 6.00	< 6.00	> 8.00	–	–	–
Cc1cn([C@@H]2C[C@H](CCc3ccc4ccc(N)nc4c3)[C@@H](O)[C@H]2O)c2ncnc(N)c12 [I-66]	–	< 6.00	> 8.00	–	–	–
CNc1ccc2ccc(OC[C@H]3O[C@@H](n4cnc5c(N)ncnc54)[C@H](O)[C@@H]3O)cc2n1 [I-76]	7.00 to 8.00	< 6.00	> 8.00	–	–	–

SMILES	pIC50 (METTL3/METTL14; [1])	pIC50 (METTL1/WDR4; [2])	pIC50 (PRMT5-MEP50; [3])	pIC50 (METTL3/METTL14; read-out: METTL3 IC50; METTL3 biochemical assay)	pIC50 (METTL1/WDR4; [4])	pIC50 (PRMT5-MEP50; read-out: PRMT5 IC50; PRMT5 biochemical assay)
Nc1ncnc2c1ccn2[C@@H]1O[C@H](COc2ccc3ccc(N4CCOCC4)nc3c2)[C@@H](O)[C@H]1O [I-77]	7.00 to 8.00	< 6.00	6.00 to 7.00	–	–	–
Nc1ccc2ccc(OC[C@H]3O[C@H](n4ccc5c(N)ncnc54)[C@H](O)[C@@H]3O)cc2n1 [I-79]	< 6.00	< 6.00	6.00 to 7.00	–	–	–
Nc1ccc2ccc(OC[C@H]3O[C@@H](n4ccc5c(N)ncnc54)[C@H](O)[C@@H]3O)cc2n1 [I-80]	7.00 to 8.00	< 6.00	> 8.00	–	–	–
Nc1ncnc2c1ccn2[C@@H]1C[C@H](CCc2ccc3c(OCC4CC4)ccnc3c2)[C@@H](O)[C@H]1O [I-85]	< 6.00	< 6.00	> 8.00	–	–	–
Nc1ncnc2c1ccn2[C@@H]1C[C@H](CCc2ccc3c(OCc4ccccc4)ccnc3c2)[C@@H](O)[C@H]1O [I-86]	< 6.00	< 6.00	> 8.00	–	–	–
CNc1ccc2cc(F)c(CC[C@H]3C[C@@H](n4ccc5c(N)ncnc54)[C@H](O)[C@@H]3O)cc2n1 [I-87]	7.00 to 8.00	< 6.00	> 8.00	–	–	–
Nc1ncnc2c1ccn2[C@@H]1C[C@H](CCc2ccc3[nH]cnc3c2)[C@@H](O)[C@H]1O [I-88]	< 6.00	< 6.00	> 8.00	–	–	–
O[C@@H]1[C@@H](CCc2ccc3[nH]ncc3c2)C[C@@H](n2ccc3c(NCCc4ccccc4)ncnc32)[C@@H]1O [I-89]	< 6.00	< 6.00	6.00 to 7.00	–	–	–
Nc1ccc2ccc(OC[C@H]3C[C@@H](n4ccc5c(NCCc6ccccc6)ncnc54)[C@H](O)[C@@H]3O)cc2n1 [I-91]	< 6.00	–	> 8.00	–	< 6.00	–
CCCNc1ccc2ccc(CC[C@H]3C[C@@H](n4ccc5c(N)ncnc54)[C@H](O)[C@@H]3O)cc2n1 [I-120]	–	< 6.00	> 8.00	–	–	–
Nc1ncnc2c1ccn2[C@@H]1C[C@H](CCc2ccc3ccncc3c2)[C@@H](O)[C@H]1O [I-131]	–	< 6.00	7.00 to 8.00	–	–	–
Nc1ncnc2c1ccn2[C@@H]1C[C@H](CCc2ccc3ccc(NCC4CC4)nc3c2)[C@@H](O)[C@H]1O [I-132]	–	–	> 8.00	–	< 6.00	–
Nc1ncnc2c1ccn2[C@@H]1C[C@H](CCc2ccc3cccnc3c2)[C@@H](O)[C@H]1O [I-133]	–	–	> 8.00	–	< 6.00	–
Nc1ccc2ccc(CC[C@H]3C[C@@H](n4ccc5c(NCCc6ccccc6)ncnc54)[C@H](O)[C@@H]3O)cc2n1 [I-134]	–	< 6.00	> 8.00	–	–	–
Nc1ncnc2c1ccn2[C@@H]1C[C@H](CCc2ccc3ccccc3c2)[C@@H](O)[C@H]1O [I-136]	–	< 6.00	< 6.00	–	–	–
Nc1ncnc2c1ccn2[C@@H]1C[C@H](CCc2ccc3cc(Br)cnc3c2)[C@@H](O)[C@H]1O [I-137]	–	< 6.00	> 8.00	–	–	–
